Laboratory results reported in article PMC5872666, “Stimulation of Dectin-1 and Dectin-2 during Parenteral Immunization, but Not Mincle, Induces Secretory IgA in Intestinal Mucosa” (Journal of Immunology Research, 2018).

Biological target: T1, ovalbumin (OVA) (Gallus gallus, UniProt P01012)
T1 construct: gene SERPINB14; amine-coupled to CM5 chip
T1 sequence (P01012 2-386): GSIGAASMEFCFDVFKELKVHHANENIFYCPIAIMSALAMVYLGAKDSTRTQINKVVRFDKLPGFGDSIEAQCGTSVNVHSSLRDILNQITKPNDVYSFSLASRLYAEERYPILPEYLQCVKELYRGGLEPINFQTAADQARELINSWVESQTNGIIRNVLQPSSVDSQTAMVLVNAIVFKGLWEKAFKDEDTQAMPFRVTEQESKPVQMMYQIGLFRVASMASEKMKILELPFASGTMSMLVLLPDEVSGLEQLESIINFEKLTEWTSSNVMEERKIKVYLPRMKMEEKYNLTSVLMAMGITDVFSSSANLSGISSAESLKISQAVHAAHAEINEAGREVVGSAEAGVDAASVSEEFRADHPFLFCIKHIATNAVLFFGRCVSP
Assay: SPR, Biacore […]
Type: binding

SMILES: CCCCCCCCCCCCCCCCCCCCCC(=O)OC[C@H]1O[C@H](O[C@H]2O[C@H](COC(=O)CCCCCCCCCCCCCCCCCCCCC)[C@@H](O)[C@H](O)[C@H]2O)[C@H](O)[C@@H](O)[C@@H]1O [TDB]
- Kd: 0.235 nM
